US9365522B2, “Pyrazole amide derivative” (AMGEN INC., priority 2015, dated 2016)

Biological target: T1, ligand binding domain of human ROR gamma (Homo sapiens, UniProt P51449)
T1 construct: NM_001001523; expressed in transfected cells; host or cells: HEK293T
T1 sequence (P51449 247-497 isoform P51449-2): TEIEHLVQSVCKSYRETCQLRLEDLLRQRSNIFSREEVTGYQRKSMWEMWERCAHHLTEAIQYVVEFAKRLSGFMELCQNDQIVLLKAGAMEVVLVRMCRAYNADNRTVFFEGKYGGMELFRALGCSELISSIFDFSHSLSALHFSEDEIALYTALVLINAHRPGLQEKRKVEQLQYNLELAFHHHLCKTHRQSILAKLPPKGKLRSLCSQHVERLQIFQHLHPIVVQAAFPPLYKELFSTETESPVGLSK
Assay: ROR gamma reporter gene assay (GAL4-RORγ LBD luciferase, Dual-Glo)
Format: cell-based
Details: HEK293T cells transfected with pM-ROR gamma, 8 concentrations 3.5 nM to 10.5 μM, 24 h incubation; read-out: result (pIC50, inhibition of RORγ transcriptional activity) (converted)
In short: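 Transient GAL4-RORγ LBD (aa 247-497) / 5×UAS-luc / pRL-CMV cotransfection in HEK293T, charcoal-stripped 10% FBS. 8-pt dose, 3.5 nM–10.5 μM, 0.075% DMSO final. 24 h, 37 °C, 5% CO2. Dual-Glo firefly/renilla readout; pIC50 from curve fit.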

IC50	Compound
> 1.05e+07 pM	CC(C)N1CCC(N(CC(=O)c2c(Cl)cc(F)cc2Cl)C(=O)c2cnn([C@H]3CC[C@](C)(C(=O)O)CC3)c2C(F)(F)F)CC1 [Example 296, trans-4-(4-((2-(2,6-dichloro-4-fluorophenyl)-2-oxoethyl)-(1-propan-2-ylpiperidin-4-yl)carbamoyl)-5-(trifluoromethyl)pyrazol-1-yl)-1-methylcyclohexane-1-carboxylic acid]
219000 pM	CC(C)(C)C#CCN(CC(=O)c1c(Cl)cccc1C(F)(F)F)C(=O)c1cnn([C@H]2CC[C@](C)(C(=O)O)CC2)c1C(F)(F)F [Example 217, trans-4-(4-((2-(2-chloro-6-(trifluoromethyl)phenyl)-2-oxoethyl)-(4,4-dimethylpent-2-ynyl)carbamoyl)-5-(trifluoromethyl)pyrazol-1-yl)-1-methylcyclohexane-1-carboxylic acid]
> 1e+07 pM	N[C@]1(C(=O)O)CC[C@@H](n2ncc(C(=O)N(CC(=O)c3c(Cl)cncc3Cl)Cc3ccc(F)cc3)c2C(F)(F)F)CC1 [Example 116, cis-4-(4-((2-(3,5-dichloropyridin-4-yl)-2-oxoethyl)-((4-fluorophenyl)methyl)carbamoyl)-5-(trifluoromethyl)pyrazol-1-yl)-1-aminocyclohexane-1-carboxylic acid]
224000 pM	CC(C1CCCC1)N(CC(=O)c1c(Cl)cncc1Cl)C(=O)c1cnn([C@H]2CC[C@H](C(=O)O)CC2)c1C(F)(F)F (stereo partly drawn) [Example 187, trans-4-(4-(1-cyclopentylethyl-(2-(3,5-dichloropyridin-4-yl)-2-oxoethyl)carbamoyl)-5-(trifluoromethyl)pyrazol-1-yl)cyclohexane-1-carboxylic acid]
45700 pM	Cc1c(C(=O)N(CC(=O)c2c(Cl)cccc2Cl)[C@H]2C[C@@H]3[C@H](C2)C3(C)C)cnn1[C@H]1CC[C@](C)(C(=O)O)CC1 [Example 364, trans-4-(4-((2-(2,6-dichlorophenyl)-2-oxoethyl)((1R,3r,5S)-6,6-dimethylbicyclo[3.1.0]hexan-3-yl)carbamoyl)-5-methyl-1H-pyrazol-1-yl)-1-methylcyclohexanecarboxylic acid]
4.37e+06 pM	C[C@]1(C(=O)O)CC[C@H](n2ncc(C(=O)N(CC(=O)c3c(Cl)cncc3Cl)Cc3cc(F)cc(F)c3)c2C(F)F)CC1 [Example 178, trans-4-(4-((2-(3,5-dichloropyridin-4-yl)-2-oxoethyl)-((3,5-difluorophenyl)methyl)carbamoyl)-5-(difluoromethyl)pyrazol-1-yl)-1-methylcyclohexane-1-carboxylic acid]
> 1e+07 pM	CC1(O)CCC(CN(CC(=O)c2c(Cl)cncc2Cl)C(=O)c2cnn([C@H]3CC[C@H](C(=O)O)CC3)c2C(F)(F)F)CC1 (stereo partly drawn) [Example 19, trans-4-(4-((2-(3,5-dichloropyridin-4-yl)-2-oxoethyl)((4-hydroxy-4-methylcyclohexyl)methyl)carbamoyl)-5-(trifluoromethyl)-1H-pyrazol-1-yl)cyclohexanecarboxylic acid]
4.07e+06 pM	O=C(CN(Cc1cc(F)cc(F)c1)C(=O)c1cnn([C@H]2CC[C@H](C(=O)O)CC2)c1C(F)(F)F)c1c(F)cncc1F [Example 51, trans-4-(4-((3,5-difluorobenzyl)(2-(3,5-difluoropyridin-4-yl)-2-oxoethyl)carbamoyl)-5-(trifluoromethyl)-1H-pyrazol-1-yl)cyclohexanecarboxylic acid]
537000 pM	COc1ccccc1[C@@H](O)CN(C(=O)c1cnn([C@H]2CC[C@](C)(C(=O)O)CC2)c1C(F)(F)F)[C@H]1C[C@@H]2[C@H](C1)C2(C)C [Example 370, trans-4-(4-(((1R,3r,5S)-6,6-dimethylbicyclo[3.1.0]hexan-3-yl)(2-hydroxy-2-(2-methoxyphenyl)ethyl)carbamoyl)-5-(trifluoromethyl)-1H-pyrazoH-yl)-1-methylcyclohexanecarboxylic acid]
83200 pM	O=C(CN(Cc1cc(F)cc(F)c1)C(=O)c1cnn([C@H]2CC[C@H](C(=O)O)CC2)c1C(F)(F)F)c1ccc(C(F)(F)F)cc1Cl [Example 136, trans-4-(4-((2-(2-chloro-4-(trifluoromethyl)phenyl)-2-oxoethyl)-((3,5-difluorophenyl)methyl)carbamoyl)-5-(trifluoromethyl)pyrazol-1-yl)cyclohexane-1-carboxylic acid]
1.82e+06 pM	O=C(CN(C(=O)c1cnn([C@H]2CC[C@H](C(=O)O)CC2)c1C(F)(F)F)C1CCCC1)c1c(Cl)cncc1Cl [Example 185, trans-4-(4-(cyclopentyl-(2-(3,5-dichloropyridin-4-yl)-2-oxoethyl)carbamoyl)-5-(trifluoromethyl)pyrazol-1-yl)cyclohexane-1-carboxylic acid]
1.2e+06 pM	CC1(C)CCC(N(CC(O)c2c(Cl)cc(F)cc2Cl)C(=O)c2cnn([C@H]3CC[C@](C)(C(=O)O)CC3)c2C(F)(F)F)CC1 (single isomer, unassigned) [Example 361, trans-4-(4-(((2R)-2-(2,6-dichloro-4-fluorophenyl)-2-hydroxyethyl)-(4,4-dimethylcyclohexyl)carbamoyl)-5-(trifluoromethyl)pyrazol-1-yl)-1-methylcyclohexane-1-carboxylic acid or trans-4-(4-(((2S)-2-(2,6-dichloro-4-fluorophenyl)-2-hydroxyethyl)-(4,4-dimethylcyclohexyl)carbamoyl)-5-(trifluoromethyl)pyrazol-1-yl)-1-methylcyclohexane-1-carboxylic acid]
≥ 1e+07 pM	COc1cccc(Cl)c1[C@H](O)CN(CC(C)(C)C)C(=O)c1cnn([C@H]2CC[C@](C)(C(=O)O)CC2)c1C(F)(F)F [Example 357, trans-4-(4-(((2S)-2-(2-chloro-6-methoxyphenyl)-2-hydroxyethyl)-(2,2-dimethylpropyl)carbamoyl)-5-(trifluoromethyl)pyrazol-1-yl)-1-methylcyclohexane-1-carboxylic acid]
1.32e+06 pM	C#Cc1cccc(Cl)c1C(=O)CN(Cc1cc(F)cc(F)c1)C(=O)c1cnn([C@H]2CC[C@H](C(=O)O)CC2)c1C(F)(F)F [Example 68, trans-4-(4-((2-(2-chloro-6-ethynylphenyl)-2-oxoethyl)(3,5-difluorobenzyl)carbamoyl)-5-(trifluoromethyl)-1H-pyrazol-1-yl)cyclohexanecarboxylic acid]
200000 pM	CC(C)(C)CC1CC(CN(CC(=O)c2c(Cl)cncc2Cl)C(=O)c2cnn([C@H]3CC[C@H](C(=O)O)CC3)c2C(F)(F)F)C1 (stereo partly drawn) [Example 140, trans-4-(4-((2-(3,5-dichloropyridin-4-yl)-2-oxoethyl)-((3-(2,2-dimethylpropyl)cyclobutyl)methyl)carbamoyl)-5-(trifluoromethyl)pyrazol-1-yl)cyclohexane-1-carboxylic acid]
148000 pM	O=C(CN(Cc1cncnc1)C(=O)c1cnn([C@H]2CC[C@H](C(=O)O)CC2)c1C(F)(F)F)c1c(Cl)cccc1Cl [Example 146, trans-4-(4-((2-(2,6-dichlorophenyl)-2-oxoethyl)-(pyrimidin-5-ylmethyl)carbamoyl)-5-(trifluoromethyl)pyrazol-1-yl)cyclohexane-1-carboxylic acid]
2.82e+06 pM	O=C(CN(Cc1cc(F)cc(F)c1)C(=O)c1cnn([C@H]2CC[C@H](C(=O)O)CC2)c1C(F)(F)F)c1cc(Cl)ccc1Cl [Example 107, trans-4-(4-((2-(2,5-dichlorophenyl)-2-oxoethyl)-((3,5-difluorophenyl)methyl)carbamoyl)-5-(trifluoromethyl)pyrazol-1-yl)cyclohexane-1-carboxylic acid]
331000 pM	CC1(C)[C@@H]2C[C@H](N(C[C@H](O)c3ccccc3C(F)(F)F)C(=O)c3cnn([C@H]4CC[C@](C)(C(=O)O)CC4)c3C(F)(F)F)C[C@@H]21 [Example 372, trans-4-(4-(((1R,3r,5S)-6,6-dimethylbicyclo[3.1.0]hexan-3-yl)(2-hydroxy-2-(2-(trifluoromethyl)phenyl)ethyl)carbamoyl)-5-(trifluoromethyl)-1H-pyrazol-1-yl)-1-methylcyclohexanecarboxylic acid]
6460 pM	CC12CCC(CN(CC(=O)c3c(Cl)cc(F)cc3Cl)C(=O)c3cnn([C@H]4CC[C@H](C(=O)O)CC4)c3C(F)(F)F)(CC1)C2 [Example 193, trans-4-(4-((2-(2,6-dichloro-4-fluorophenyl)-2-oxoethyl)-((1-methyl-4-bicycio[2.2.1]heptanyl)methyl)carbamoyl)-5-(trifluoromethyl)pyrazol-1-yl)cyclohexane-1-carboxylic acid]
61700 pM	CC(C)(C)CN(CC(=O)c1c(Cl)cccc1Cl)C(=O)c1cnn([C@H]2CC[C@](C)(C(=O)O)CC2)c1Cl [Example 358, trans-4-(5-chloro-4-((2-(2,6-dichlorophenyl)-2-oxoethyl)-(2,2-dimethylpropyl)carbamoyl)pyrazol-1-yl)-1-methylcyclohexane-1-carboxylic acid]
5890 pM	CC(C)(C)CN(CC(=O)c1c(Cl)cccc1C(F)(F)F)C(=O)c1cnn(C23CCC(C(=O)O)(CC2)CC3)c1C(F)(F)F [Example 263, 4-(4-((2-(2-chloro-6-(trifluoromethyl)phenyl)-2-oxoethyl)-(2,2-dimethylpropyl)carbamoyl)-5-(trifluoromethyl)pyrazol-1-yl)bicyclo[2.2.2]octane-1-carboxylic acid]
